The numbers were not newly measured in US20160175335A1, “ANTIFUNGAL COMBINATION THERAPY OF TAVABOROLE AND EFINACONAZOLE” (priority 2014, published 2016), which cites them from elsewhere.

In the data set the test system is dermatophytes, yeasts and non-dermatophyte molds. The settings on record: against dermatophytes.

For `C=C1CCN([C@H](C)[C@](O)(Cn2cncn2)c2ccc(F)cc2F)CC1` [Efinaconazole, ((2R,3R)-2-(2,4-difluorophenyl)-3-(4-methylenepiperidin-1yl)-1-(1H-1,2,4-triazol-1-yl)butan-2-ol)], the “effectiveness in vitro compared with other antifungal agents” value was “more effective in vitro than terbinafine, itraconazole, ciclopirox and amorolfine”.
